Results: patent US12312356B2, “Anthelmintic heterocyclic compounds” (Boehringer Ingelheim Vetmedica GmbH, priority 2020, dated 2025)

Legend:
[1] = system: microfilariae of Dirofilaria immitis; test: Screening method to test activity against microfilaria of Dirofilaria immitis (motility, dose response); format: cell-based; details: 72 h, read-out: EC50 value (motility of the microfilaria)
[2] = system: L4 stage Dirofilaria immitis worms; test: Screening method to test activity against L4 stage larvae of Dirofilaria immitis (motility, dose response); format: cell-based; details: 72 h, read-out: EC50 value (motility of L4 larvae)

**Q.** For `Cc1nc2c(C(C)C)c(C(=O)N[C@H]3CCOc4ccccc43)cnn2c1-c1cc(F)cc(F)c1` [Compound 175, 3-(3,5-difluorophenyl)-N-[(4S)-3,4-dihydro-2H-1-benzopyran-4-yl]-8-isopropyl-2-methylimidazo[1,2-b]pyridazine-7-carboxamide], which EC50 [1] is on record?
**A.** The EC50 was 1 to 10 nM.

**Q.** And the EC50 [2]?
**A.** Its EC50 is 1 to 10 nM.

**Q.** `Cc1nc2c(C(C)C)c(C(=O)N[C@H]3CCOc4ccccc43)cnn2c1-c1cc(Cl)cc(Cl)c1` [Compound 271, 3-(3,5-dichlorophenyl)-N-[(4S)-3,4-dihydro-2H-1-benzopyran-4-yl]-8-isopropyl-2-methylimidazo[1,2-b]pyridazine-7-carboxamide] was tested. Which EC50 [1] did it give?
**A.** Its EC50 is 1 to 10 nM.

**Q.** What about the EC50 [2] of the same compound?
**A.** Its EC50 is under 1 nM.

**Q.** Which EC50 [1] does the source give for `Cc1nc2c(C(C)(C)F)c(C(=O)N[C@H]3CCOc4ccccc43)cnn2c1-c1cc(F)cc(F)c1` [Compound 277, 3-(3,5-difluorophenyl)-N-[(4S)-3,4-dihydro-2H-1-benzopyran-4-yl]-8-(2-fluoropropan-2-yl)-2-methylimidazo[1,2-b]pyridazine-7-carboxamide] here?
**A.** Its EC50 is 1 to 10 nM.

**Q.** And the EC50 [2]?
**A.** Its EC50 is 1 to 10 nM.

**Q.** With `C=C(C)c1c(C(=O)N[C@H]2CCOc3ccccc32)cnn2c(-c3cc(F)cc(F)c3)c(C)nc12` [Compound 279, 3-(3,5-difluorophenyl)-N-[(4S)-3,4-dihydro-2H-1-benzopyran-4-yl]-2-methyl-8-(prop-1-en-2-yl)imidazo[1,2-b]pyridazine-7-carboxamide] as the compound, how does the EC50 [1] read?
**A.** The EC50 was 10 to 100 nM.

**Q.** Which EC50 [2] does the source give for `CC(C)c1c(C(=O)N[C@H]2CCOc3ccc(F)cc32)cnn2c(Cl)c(-c3cc(Cl)cc(Cl)c3)nc12` [Compound 304-0, 3-chloro-2-(3,5-dichlorophenyl)-N-[(4S)-6-fluoro-3,4-dihydro-2H-1-benzopyran-4-yl]-8-isopropylimidazo[1,2-b]pyridazine-7-carboxamide] here?
**A.** The EC50 was 1000 to 10000 nM.

**Q.** What does the source list for `Cc1nc2c(C(C)(C)C)c(C(=O)N[C@H]3CCOc4ccccc43)cnn2c1-c1cc(Cl)cc(Cl)c1` [Compound 306, 8-tert-butyl-3-(3,5-dichlorophenyl)-N-[(4S)-3,4-dihydro-2H-1-benzopyran-4-yl]-2-methylimidazo[1,2-b]pyridazine-7-carboxamide]?
**A.** EC50 [1]: 1 to 10 nM; EC50 [2]: < 1 nM

**Q.** `Cc1nc2c(C(C)C)c(NC(=O)[C@H]3CCOc4ccccc43)cnn2c1-c1cc(F)cc(F)c1` [Compound 320, (4S)—N-[3-(3,5-difluorophenyl)-8-isopropyl-2-methylimidazo[1,2-b]pyridazin-7-yl]-3,4-dihydro-2H-1-benzopyran-4-carboxamide] was tested. Which EC50 [2] did it give?
**A.** Its EC50 is 10 to 100 nM.

**Q.** With `Cc1nc2c(C(C)C)c(NC(=O)[C@@H]3CCOc4ccccc43)cnn2c1-c1cc(F)cc(F)c1` [Compound 320-0, (4R)—N-[3-(3,5-difluorophenyl)-8-isopropyl-2-methylimidazo[1,2-b]pyridazin-7-yl]-3,4-dihydro-2H-1-benzopyran-4-carboxamide] as the compound, how does the EC50 [2] read?
**A.** Its EC50 is 1000 to 10000 nM.

**Q.** Which EC50 [1] does the source give for `Cc1nc2c(C(C)C)c(C(=O)N[C@H]3CCOc4ccccc43)cnn2c1C(C)(C)C` [Compound 323, 3-tert-butyl-N-[(4S)-3,4-dihydro-2H-1-benzopyran-4-yl]-8-isopropyl-2-methylimidazo[1,2-b]pyridazine-7-carboxamide] here?
**A.** The EC50 was 10 to 100 nM.

**Q.** What about the EC50 [2] of the same compound?
**A.** The EC50 was 100 to 1000 nM.

**Q.** What does the source list for `Cc1nc2c(C(C)C)c(C(=O)N[C@H]3CCOc4ccccc43)cnn2c1CC(C)C` [Compound 323-0, N-[(4S)-3,4-dihydro-2H-1-benzopyran-4-yl]-2-methyl-3-(2-methylpropyl)-8-(propan-2-yl)imidazo[1,2-b]pyridazine-7-carboxamide]?
**A.** EC50 [1]: 10 to 100 nM; EC50 [2]: 10 to 100 nM

**Q.** Which results are given for `Cc1nc2c(C(C)C)c(C(=O)N[C@H]3CCOc4ccccc43)cnn2c1N1CCCCC1` [Compound 324, N-[(4S)-3,4-dihydro-2H-1-benzopyran-4-yl]-8-isopropyl-2-methyl-3-(piperidin-1-yl)imidazo[1,2-b]pyridazine-7-carboxamide]?
**A.** EC50 [1]: < 1 nM; EC50 [2]: 1 to 10 nM

**Q.** How did the EC50 [2] turn out when `Cc1nc2c(C(C)C)c(C(=O)N[C@H]3CCOc4ccccc43)cnn2c1[C@H]1CC[C@H](C(F)(F)F)CC1` [Compound 326, N-[(4S)-3,4-dihydro-2H-1-benzopyran-4-yl]-8-isopropyl-2-methyl-3-[(1r,4r)-4-(trifluoromethyl)cyclohexyl]imidazo[1,2-b]pyridazine-7-carboxamide] was run?
**A.** Its EC50 is 10 to 100 nM.

**Q.** Which EC50 [1] does the source give for `Cc1nc2c(C(C)C)c(C(=O)N[C@H]3CCOc4ccccc43)cnn2c1[C@H]1CC[C@@H](C(F)(F)F)CC1` [Compound 326-0, N—((S)-chroman-4-yl)-8-isopropyl-2-methyl-3-((1s,4R)-4-(trifluoromethyl)cyclohexyl)imidazo[1,2-b]pyridazine-7-carboxamide] here?
**A.** Its EC50 is 10 to 100 nM.

**Q.** What about the EC50 [2] of the same compound?
**A.** Its EC50 is 1 to 10 nM.

**Q.** With `Cc1nc2c(C(C)C)c(C(=O)N[C@H]3CCOc4ccccc43)cnn2c1C1=CCC(C(F)(F)F)CC1` (stereo partly drawn) [Compound 327, N-[(4S)-3,4-dihydro-2H-1-benzopyran-4-yl]-8-isopropyl-2-methyl-3-[4-(trifluoromethyl)cyclohex-1-en-1-yl]imidazo[1,2-b]pyridazine-7-carboxamide] as the compound, how does the EC50 [2] read?
**A.** The EC50 was 1 to 10 nM.

**Q.** Which EC50 [1] does the source give for `CC(C)c1c(C(=O)N[C@H]2CCOc3ccccc32)cnn2c(-c3cc(Cl)cc(Cl)c3)cnc12` [Compound 352, 3-(3,5-dichlorophenyl)-N-[(4S)-3,4-dihydro-2H-1-benzopyran-4-yl]-8-isopropylimidazo[1,2-b]pyridazine-7-carboxamide] here?
**A.** Its EC50 is 10 to 100 nM.

**Q.** Which EC50 [2] does the source give for `Cc1nc2c(C(C)C)c(C(=O)N[C@H]3CCOc4ccccc43)cnn2c1C#N` [Compound 366, 3-cyano-N-[(4S)-3,4-dihydro-2H-1-benzopyran-4-yl]-8-isopropyl-2-methylimidazo[1,2-b]pyridazine-7-carboxamide] here?
**A.** Its EC50 is 1000 to 10000 nM.

**Q.** With `O=C(N[C@H]1CCOc2ccccc21)c1cnn2c(-c3cc(Cl)cc(Cl)c3)c(C(F)(F)F)nc2c1N1CCOCC1` [Compound 450, 3-(3,5-dichlorophenyl)-N-[(4S)-3,4-dihydro-2H-1-benzopyran-4-yl]-8-(morpholin-4-yl)-2-(trifluoromethyl)imidazo[1,2-b]pyridazine-7-carboxamide] as the compound, how does the EC50 [1] read?
**A.** The EC50 was 100 to 1000 nM.

**Q.** For `O=C(N[C@H]1CCOc2ccccc21)c1cnn2c(-c3cc(Cl)cc(Cl)c3)cnc2c1N1CCOCC1` [Compound 511, 3-(3,5-dichlorophenyl)-N-[(4S)-3,4-dihydro-2H-1-benzopyran-4-yl]-8-(morpholin-4-yl)imidazo[1,2-b]pyridazine-7-carboxamide], which EC50 [1] is on record?
**A.** Its EC50 is 10 to 100 nM.

**Q.** With `CC(=O)c1nc2c(C(C)C)c(C(=O)N[C@H]3CCOc4ccccc43)cnn2c1-c1cc(Cl)cc(Cl)c1` [Compound 558, 2-acetyl-3-(3,5-dichlorophenyl)-N-[(4S)-3,4-dihydro-2H-1-benzopyran-4-yl]-8-isopropylimidazo[1,2-b]pyridazine] as the compound, how does the EC50 [1] read?
**A.** The EC50 was 10 to 100 nM.

**Q.** `Cc1nc2c(C(C)(C)C)c(C(=O)NN3CCOc4ccccc43)cnn2c1-c1cc(Cl)cc(Cl)c1` [Compound 614, 8-tert-butyl-3-(3,5-dichlorophenyl)-N-(2,3-dihydro-1,4-benzoxazin-4-yl)-2-methylimidazo[1,2-b]pyridazine-7-carboxamide] was tested. Which EC50 [1] did it give?
**A.** Its EC50 is 1 to 10 nM.
